The source made the active and inactive calls. The rule behind the calls is not given here.
System: CCRIS mutagenicity, Ames/micronucleus/aberration tests
Experiment: CCRIS mutagenicity studies

Measured: mutagenic call

Fc1c(F)c(F)c(Cl)c(F)c1F
inactive: Test System: AMES SALMONELLA TYPHIMURIUM, Strain/Indicator: TA98, Metabolic Activation: NONE, Method: PREINCUBATION inactive; negative | Test System: AMES SALMONELLA TYPHIMURIUM, Strain/Indicator: TA98, Metabolic Activation: NONE, Method: STANDARD PLATE inactive; negative | Test System: AMES SALMONELLA TYPHIMURIUM, Strain/Indicator: TA98, Metabolic Activation: RAT, LIVER, S-9, AROCLOR 1254, Method: PREINCUBATION inactive; negative | Test System: AMES SALMONELLA TYPHIMURIUM, Strain/Indicator: TA98, Metabolic Activation: RAT, LIVER, S-9, AROCLOR 1254, Method: STANDARD PLATE inactive; negative | Test System: AMES SALMONELLA TYPHIMURIUM, Strain/Indicator: TA100, Metabolic Activation: NONE, Method: PREINCUBATION inactive; negative | Test System: AMES SALMONELLA TYPHIMURIUM, Strain/Indicator: TA100, Metabolic Activation: NONE, Method: STANDARD PLATE inactive; negative | Test System: AMES SALMONELLA TYPHIMURIUM, Strain/Indicator: TA100, Metabolic Activation: RAT, LIVER, S-9, AROCLOR 1254, Method: PREINCUBATION inactive; negative | Test System: AMES SALMONELLA TYPHIMURIUM, Strain/Indicator: TA100, Metabolic Activation: RAT, LIVER, S-9, AROCLOR 1254, Method: STANDARD PLATE inactive; negative | Test System: AMES SALMONELLA TYPHIMURIUM, Strain/Indicator: TA1535, Metabolic Activation: NONE, Method: PREINCUBATION inactive; negative | Test System: AMES SALMONELLA TYPHIMURIUM, Strain/Indicator: TA1535, Metabolic Activation: NONE, Method: STANDARD PLATE inactive; negative | Test System: AMES SALMONELLA TYPHIMURIUM, Strain/Indicator: TA1535, Metabolic Activation: RAT, LIVER, S-9, AROCLOR 1254, Method: PREINCUBATION inactive; negative | Test System: AMES SALMONELLA TYPHIMURIUM, Strain/Indicator: TA1535, Metabolic Activation: RAT, LIVER, S-9, AROCLOR 1254, Method: STANDARD PLATE inactive; negative | Test System: AMES SALMONELLA TYPHIMURIUM, Strain/Indicator: TA1537, Metabolic Activation: NONE, Method: PREINCUBATION inactive; negative | Test System: AMES SALMONELLA TYPHIMURIUM, Strain/Indicator: TA1537, Metabolic Activation: NONE, Method: STANDARD PLATE inactive; negative | Test System: AMES SALMONELLA TYPHIMURIUM, Strain/Indicator: TA1537, Metabolic Activation: RAT, LIVER, S-9, AROCLOR 1254, Method: PREINCUBATION inactive; negative | Test System: AMES SALMONELLA TYPHIMURIUM, Strain/Indicator: TA1537, Metabolic Activation: RAT, LIVER, S-9, AROCLOR 1254, Method: STANDARD PLATE inactive; negative | Test System: AMES SALMONELLA TYPHIMURIUM, Strain/Indicator: TA1538, Metabolic Activation: NONE, Method: PREINCUBATION inactive; negative | Test System: AMES SALMONELLA TYPHIMURIUM, Strain/Indicator: TA1538, Metabolic Activation: NONE, Method: STANDARD PLATE inactive; negative | Test System: AMES SALMONELLA TYPHIMURIUM, Strain/Indicator: TA1538, Metabolic Activation: RAT, LIVER, S-9, AROCLOR 1254, Method: PREINCUBATION inactive; negative | Test System: AMES SALMONELLA TYPHIMURIUM, Strain/Indicator: TA1538, Metabolic Activation: RAT, LIVER, S-9, AROCLOR 1254, Method: STANDARD PLATE inactive; negative | Test System: CHINESE HAMSTER OVARY, Strain/Indicator: CHO (HGPRT), Metabolic Activation: NONE inactive; negative | Test System: CHINESE HAMSTER OVARY, Strain/Indicator: CHO (HGPRT), Metabolic Activation: RAT, LIVER, S-9, AROCLOR 1254 inactive; negative | Test System: CHINESE HAMSTER OVARY, Strain/Indicator: CHO-K1-BH4 (HGPRT)/6-THIOGUANINE, Metabolic Activation: NONE, Method: SUSPENSION/PLATE inactive; negative | Test System: CHINESE HAMSTER OVARY, Strain/Indicator: CHO-K1-BH4 (HGPRT)/6-THIOGUANINE, Metabolic Activation: RAT, LIVER, S-9, AROCLOR 1254, Method: SUSPENSION/PLATE inactive; negative | Test System: CHO/HGPRT, Strain/Indicator: CHO-K1-BH4, Metabolic Activation: NONE, Method: SUSPENSION/PLATE inactive; negative | Test System: CHO/HGPRT, Strain/Indicator: CHO-K1-BH4, Metabolic Activation: RAT, LIVER, S-9, AROCLOR 1254, Method: SUSPENSION/PLATE inactive; negative | Test System: UDS RAT PRIMARY HEPATOCYTES, Strain/Indicator: THY INCORP, Metabolic Activation: NONE, Method: IN VIVO-IN VITRO inactive; negative | Test System: UDS RODENT HEPATOCYTES, Strain/Indicator: THY INCORP (NON-S-PHASE), Metabolic Activation: NONE inactive; negative

Reference: PubChem BioAssay AID1259407 (Chemical Carcinogenesis Research Information System (CCRIS), 2018)
